Data: the NIST ThermoML archive (doi:10.1021/je101156d)
Numbers after ± are expanded uncertainties.

Test: mn = molality of the nth substance listed, in mol/kg
Conditions: 101.3 kPa, Liquid, Dip Cell

Structure (SMILES): CC(CN1c2ccccc2Sc2ccccc21)N(C)C.Cl (stereo not given) [promethazine hydrochloride] + O
- electrical conductivity (293.15 K, m1 = 0.00484): 0.029 ± 0.04 S/m
- electrical conductivity (293.15 K, m1 = 0.00938): 0.065 ± 0.04 S/m
- electrical conductivity (293.15 K, m1 = 0.0136): 0.099 ± 0.04 S/m
- electrical conductivity (293.15 K, m1 = 0.0176): 0.13 ± 0.04 S/m
- electrical conductivity (293.15 K, m1 = 0.0214): 0.159 ± 0.04 S/m
- electrical conductivity (293.15 K, m1 = 0.025): 0.184 ± 0.04 S/m
- electrical conductivity (293.15 K, m1 = 0.0284): 0.208 ± 0.04 S/m
- electrical conductivity (293.15 K, m1 = 0.0316): 0.23 ± 0.04 S/m
- electrical conductivity (293.15 K, m1 = 0.0346): 0.251 ± 0.04 S/m
- electrical conductivity (293.15 K, m1 = 0.0375): 0.271 ± 0.04 S/m
- electrical conductivity (293.15 K, m1 = 0.0402): 0.289 ± 0.04 S/m
- electrical conductivity (293.15 K, m1 = 0.0429): 0.307 ± 0.04 S/m
- electrical conductivity (293.15 K, m1 = 0.0453): 0.327 ± 0.04 S/m
- electrical conductivity (293.15 K, m1 = 0.0477): 0.336 ± 0.04 S/m
- electrical conductivity (293.15 K, m1 = 0.05): 0.347 ± 0.04 S/m
- electrical conductivity (293.15 K, m1 = 0.0522): 0.358 ± 0.04 S/m
- electrical conductivity (293.15 K, m1 = 0.0543): 0.369 ± 0.04 S/m
- electrical conductivity (293.15 K, m1 = 0.0563): 0.38 ± 0.04 S/m
- electrical conductivity (293.15 K, m1 = 0.0582): 0.391 ± 0.04 S/m
- electrical conductivity (293.15 K, m1 = 0.06): 0.402 ± 0.04 S/m
- electrical conductivity (293.15 K, m1 = 0.0618): 0.41 ± 0.041 S/m
- electrical conductivity (293.15 K, m1 = 0.0635): 0.417 ± 0.042 S/m
- electrical conductivity (293.15 K, m1 = 0.0651): 0.424 ± 0.042 S/m
- electrical conductivity (293.15 K, m1 = 0.0667): 0.431 ± 0.043 S/m
- electrical conductivity (293.15 K, m1 = 0.0682): 0.438 ± 0.044 S/m
- electrical conductivity (293.15 K, m1 = 0.0696): 0.445 ± 0.045 S/m
- electrical conductivity (293.15 K, m1 = 0.0711): 0.452 ± 0.045 S/m
- electrical conductivity (293.15 K, m1 = 0.0724): 0.459 ± 0.046 S/m
- electrical conductivity (293.15 K, m1 = 0.0737): 0.466 ± 0.047 S/m
- electrical conductivity (293.15 K, m1 = 0.075): 0.473 ± 0.047 S/m
- electrical conductivity (303.15 K, m1 = 0.00484): 0.039 ± 0.04 S/m
- electrical conductivity (303.15 K, m1 = 0.00938): 0.075 ± 0.04 S/m
- electrical conductivity (303.15 K, m1 = 0.0136): 0.109 ± 0.04 S/m
- electrical conductivity (303.15 K, m1 = 0.0176): 0.14 ± 0.04 S/m
- electrical conductivity (303.15 K, m1 = 0.0214): 0.169 ± 0.04 S/m
- electrical conductivity (303.15 K, m1 = 0.025): 0.194 ± 0.04 S/m
- electrical conductivity (303.15 K, m1 = 0.0284): 0.218 ± 0.04 S/m
- electrical conductivity (303.15 K, m1 = 0.0316): 0.24 ± 0.04 S/m
- electrical conductivity (303.15 K, m1 = 0.0346): 0.261 ± 0.04 S/m
- electrical conductivity (303.15 K, m1 = 0.0375): 0.281 ± 0.04 S/m
- electrical conductivity (303.15 K, m1 = 0.0402): 0.299 ± 0.04 S/m
- electrical conductivity (303.15 K, m1 = 0.0429): 0.317 ± 0.04 S/m
- electrical conductivity (303.15 K, m1 = 0.0453): 0.337 ± 0.04 S/m
- electrical conductivity (303.15 K, m1 = 0.0477): 0.346 ± 0.04 S/m
- electrical conductivity (303.15 K, m1 = 0.05): 0.357 ± 0.04 S/m
- electrical conductivity (303.15 K, m1 = 0.0522): 0.368 ± 0.04 S/m
- electrical conductivity (303.15 K, m1 = 0.0543): 0.379 ± 0.04 S/m
- electrical conductivity (303.15 K, m1 = 0.0563): 0.39 ± 0.04 S/m
- electrical conductivity (303.15 K, m1 = 0.0582): 0.401 ± 0.04 S/m
- electrical conductivity (303.15 K, m1 = 0.06): 0.412 ± 0.041 S/m
- electrical conductivity (303.15 K, m1 = 0.0618): 0.42 ± 0.042 S/m
- electrical conductivity (303.15 K, m1 = 0.0635): 0.427 ± 0.043 S/m
- electrical conductivity (303.15 K, m1 = 0.0651): 0.434 ± 0.043 S/m
- electrical conductivity (303.15 K, m1 = 0.0667): 0.441 ± 0.044 S/m
- electrical conductivity (303.15 K, m1 = 0.0682): 0.448 ± 0.045 S/m
- electrical conductivity (303.15 K, m1 = 0.0696): 0.455 ± 0.046 S/m
- electrical conductivity (303.15 K, m1 = 0.0711): 0.462 ± 0.046 S/m
- electrical conductivity (303.15 K, m1 = 0.0724): 0.469 ± 0.047 S/m
- electrical conductivity (303.15 K, m1 = 0.0737): 0.476 ± 0.048 S/m
- electrical conductivity (303.15 K, m1 = 0.075): 0.483 ± 0.048 S/m
- electrical conductivity (313.15 K, m1 = 0.00484): 0.05 ± 0.04 S/m
- electrical conductivity (313.15 K, m1 = 0.00938): 0.092 ± 0.04 S/m
- electrical conductivity (313.15 K, m1 = 0.0136): 0.131 ± 0.04 S/m
- electrical conductivity (313.15 K, m1 = 0.0176): 0.167 ± 0.04 S/m
- electrical conductivity (313.15 K, m1 = 0.0214): 0.199 ± 0.04 S/m
- electrical conductivity (313.15 K, m1 = 0.025): 0.229 ± 0.04 S/m
- electrical conductivity (313.15 K, m1 = 0.0284): 0.257 ± 0.04 S/m
- electrical conductivity (313.15 K, m1 = 0.0316): 0.285 ± 0.04 S/m
- electrical conductivity (313.15 K, m1 = 0.0346): 0.309 ± 0.04 S/m
- electrical conductivity (313.15 K, m1 = 0.0375): 0.332 ± 0.04 S/m
- electrical conductivity (313.15 K, m1 = 0.0402): 0.353 ± 0.04 S/m
- electrical conductivity (313.15 K, m1 = 0.0429): 0.376 ± 0.04 S/m
- electrical conductivity (313.15 K, m1 = 0.0453): 0.395 ± 0.04 S/m
- electrical conductivity (313.15 K, m1 = 0.0477): 0.413 ± 0.041 S/m
- electrical conductivity (313.15 K, m1 = 0.05): 0.428 ± 0.043 S/m
- electrical conductivity (313.15 K, m1 = 0.0522): 0.44 ± 0.044 S/m
- electrical conductivity (313.15 K, m1 = 0.0543): 0.45 ± 0.045 S/m
- electrical conductivity (313.15 K, m1 = 0.0563): 0.46 ± 0.046 S/m
- electrical conductivity (313.15 K, m1 = 0.0582): 0.47 ± 0.047 S/m
- electrical conductivity (313.15 K, m1 = 0.06): 0.48 ± 0.048 S/m
- electrical conductivity (313.15 K, m1 = 0.0618): 0.488 ± 0.049 S/m
- electrical conductivity (313.15 K, m1 = 0.0635): 0.496 ± 0.05 S/m
- electrical conductivity (313.15 K, m1 = 0.0651): 0.504 ± 0.05 S/m
- electrical conductivity (313.15 K, m1 = 0.0667): 0.512 ± 0.051 S/m
- electrical conductivity (313.15 K, m1 = 0.0682): 0.52 ± 0.052 S/m
- electrical conductivity (313.15 K, m1 = 0.0696): 0.528 ± 0.053 S/m
- electrical conductivity (313.15 K, m1 = 0.0711): 0.536 ± 0.054 S/m
- electrical conductivity (313.15 K, m1 = 0.0724): 0.542 ± 0.054 S/m
- electrical conductivity (313.15 K, m1 = 0.0737): 0.548 ± 0.055 S/m
- electrical conductivity (313.15 K, m1 = 0.075): 0.554 ± 0.055 S/m
- electrical conductivity (323.15 K, m1 = 0.00484): 0.063 ± 0.04 S/m
- electrical conductivity (323.15 K, m1 = 0.00938): 0.105 ± 0.04 S/m
- electrical conductivity (323.15 K, m1 = 0.0136): 0.144 ± 0.04 S/m
- electrical conductivity (323.15 K, m1 = 0.0176): 0.18 ± 0.04 S/m
- electrical conductivity (323.15 K, m1 = 0.0214): 0.212 ± 0.04 S/m
- electrical conductivity (323.15 K, m1 = 0.025): 0.242 ± 0.04 S/m
- electrical conductivity (323.15 K, m1 = 0.0284): 0.27 ± 0.04 S/m
- electrical conductivity (323.15 K, m1 = 0.0316): 0.298 ± 0.04 S/m
- electrical conductivity (323.15 K, m1 = 0.0346): 0.322 ± 0.04 S/m
- electrical conductivity (323.15 K, m1 = 0.0375): 0.345 ± 0.04 S/m
- electrical conductivity (323.15 K, m1 = 0.0402): 0.366 ± 0.04 S/m
- electrical conductivity (323.15 K, m1 = 0.0429): 0.389 ± 0.04 S/m
- electrical conductivity (323.15 K, m1 = 0.0453): 0.408 ± 0.041 S/m
- electrical conductivity (323.15 K, m1 = 0.0477): 0.426 ± 0.043 S/m
- electrical conductivity (323.15 K, m1 = 0.05): 0.447 ± 0.045 S/m
- electrical conductivity (323.15 K, m1 = 0.0522): 0.457 ± 0.046 S/m
- electrical conductivity (323.15 K, m1 = 0.0543): 0.467 ± 0.047 S/m
- electrical conductivity (323.15 K, m1 = 0.0563): 0.477 ± 0.048 S/m
- electrical conductivity (323.15 K, m1 = 0.0582): 0.487 ± 0.049 S/m
- electrical conductivity (323.15 K, m1 = 0.06): 0.497 ± 0.05 S/m
- electrical conductivity (323.15 K, m1 = 0.0618): 0.505 ± 0.051 S/m
- electrical conductivity (323.15 K, m1 = 0.0635): 0.513 ± 0.051 S/m
- electrical conductivity (323.15 K, m1 = 0.0651): 0.52 ± 0.052 S/m
- electrical conductivity (323.15 K, m1 = 0.0667): 0.527 ± 0.053 S/m
- electrical conductivity (323.15 K, m1 = 0.0682): 0.534 ± 0.053 S/m
- electrical conductivity (323.15 K, m1 = 0.0696): 0.54 ± 0.054 S/m
- electrical conductivity (323.15 K, m1 = 0.0711): 0.546 ± 0.055 S/m
- electrical conductivity (323.15 K, m1 = 0.0724): 0.552 ± 0.055 S/m
- electrical conductivity (323.15 K, m1 = 0.0737): 0.557 ± 0.056 S/m
- electrical conductivity (323.15 K, m1 = 0.075): 0.562 ± 0.056 S/m
